In PMC7979765, “trans-Translation inhibitors bind to a novel site on the ribosome and clear Neisseria gonorrhoeae in vivo” (Nature Communications, 2021):
Values after ≈ are worked out from the molar mass of the structure shown. Values joined by “and” are separate entries in the source; they are usually repeats but may differ in a detail not shown here. Identical values can stand only once. Like-named read-outs stand apart in the source and are kept apart here.

Legend:
[1] = tested on: Glutamate, NMDA, Agonism; test: Receptor Profiling 232810; type: binding, rat; conditions: 10 μM
Method: (§1) Several in vitro selectivity assays were performed at Eurofins Discovery Services using established methods and controls that behaved as expected (Supplementary Tables 5 and 6). […] For receptor panel profiling, MBX-4132 was evaluated at 10 μM and activity of >50% (agonist or antagonist; note that negative % inhibition indicates agonism) was scored as active.

[2] = target: T1, Monoamine Oxidase MAO-A (Homo sapiens, UniProt P21397); test: Receptor Profiling 140010; type: biochemical; conditions: negative % inhibition indicates agonism
T1 construct: Eurofins Discovery Services (contract assay) 140010
T1 sequence (P21397 whole entry): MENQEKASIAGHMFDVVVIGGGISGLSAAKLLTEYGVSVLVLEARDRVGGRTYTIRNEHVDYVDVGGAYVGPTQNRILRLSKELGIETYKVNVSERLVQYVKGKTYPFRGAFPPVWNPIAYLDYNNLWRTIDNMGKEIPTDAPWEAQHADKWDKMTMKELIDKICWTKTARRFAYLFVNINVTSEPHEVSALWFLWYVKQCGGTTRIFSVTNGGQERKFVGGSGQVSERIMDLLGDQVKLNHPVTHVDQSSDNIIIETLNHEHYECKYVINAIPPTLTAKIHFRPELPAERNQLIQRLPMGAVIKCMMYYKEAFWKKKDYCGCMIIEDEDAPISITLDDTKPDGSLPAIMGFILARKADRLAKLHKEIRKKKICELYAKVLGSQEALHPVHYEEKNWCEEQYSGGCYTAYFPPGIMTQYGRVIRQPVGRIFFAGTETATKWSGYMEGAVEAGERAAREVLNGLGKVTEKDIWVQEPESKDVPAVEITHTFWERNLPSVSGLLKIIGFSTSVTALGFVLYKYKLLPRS
Method: as §1

[3] = target: T2, hERG potassium channel (Homo sapiens, UniProt Q12809); test: Receptor Profiling 265910; type: binding; conditions: probe [3H]dofetilide
T2 construct: purchased Eurofins Discovery Services (Panlabs safety panel)
Method: as §1

[4] = target: CYP3A (Homo sapiens, UniProt P08684); test: Cyp inhibition assays 4873, 4872; type: in vitro ADME
Sequence of CYP3A (P08684 2-503): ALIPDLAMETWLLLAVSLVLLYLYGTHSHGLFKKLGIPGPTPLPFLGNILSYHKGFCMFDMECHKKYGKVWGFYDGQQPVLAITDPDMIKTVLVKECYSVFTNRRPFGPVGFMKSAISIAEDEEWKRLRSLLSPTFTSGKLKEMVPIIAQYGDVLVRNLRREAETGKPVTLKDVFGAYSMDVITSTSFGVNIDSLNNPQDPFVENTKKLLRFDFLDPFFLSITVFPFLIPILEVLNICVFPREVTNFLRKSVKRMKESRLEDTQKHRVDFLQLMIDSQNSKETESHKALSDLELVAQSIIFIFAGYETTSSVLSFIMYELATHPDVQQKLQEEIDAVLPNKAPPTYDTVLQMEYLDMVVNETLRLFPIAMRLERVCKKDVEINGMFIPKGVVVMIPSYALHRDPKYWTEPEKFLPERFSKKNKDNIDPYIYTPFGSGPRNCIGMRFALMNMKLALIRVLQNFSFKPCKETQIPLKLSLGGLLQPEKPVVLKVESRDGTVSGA
Method: as §1

[5] = Serum shift of MIC (+/- 10% fetal bovine serum)
[6] = tested on: Streptococcus pneumoniae; test: MIC, microbroth dilution; type: cell-based
[7] = Liver microsome stability, dog; type: in vitro ADME; conditions: for half-life: dog, liver microsomes
Method: (§2) To examine potential for first-pass metabolism of analogs in the liver, the stability of analogs in the presence of liver microsome preparations (Eurofins Discovery for human, dog and rat; Xenotech for mouse) was measured using the method of Kuhnz, et al.[50]. for murine studies and Oback for the dog, human and rat studies. The amount of parent compound remaining after incubation with microsomes in the presence of NADPH over a 30 min time range was measured using a reverse-phase liquid chromatography/mass spectroscopy method that was customized for each compound. Half-lives were calculated using linear regression analysis of several time points.

[8] = target: T3, Muscarinic M2 (Homo sapiens, UniProt P08172); test: Receptor Profiling 252710; type: binding
T3 construct: purchased Eurofins Discovery Services (Panlabs safety panel)
T3 sequence (P08172 whole entry): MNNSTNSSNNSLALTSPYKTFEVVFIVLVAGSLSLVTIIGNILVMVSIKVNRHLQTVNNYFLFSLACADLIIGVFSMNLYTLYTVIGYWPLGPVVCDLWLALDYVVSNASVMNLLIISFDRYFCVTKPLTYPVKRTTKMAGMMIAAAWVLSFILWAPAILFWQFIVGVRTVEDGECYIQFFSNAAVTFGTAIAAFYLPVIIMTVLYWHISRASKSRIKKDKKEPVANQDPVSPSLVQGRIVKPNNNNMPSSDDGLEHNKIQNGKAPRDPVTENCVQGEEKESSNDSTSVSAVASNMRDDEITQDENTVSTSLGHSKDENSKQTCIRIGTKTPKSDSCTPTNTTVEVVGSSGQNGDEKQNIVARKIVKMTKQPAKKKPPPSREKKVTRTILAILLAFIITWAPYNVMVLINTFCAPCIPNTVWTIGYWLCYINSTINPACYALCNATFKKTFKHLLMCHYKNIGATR
Method: as §1

[9] = tested on: CYP450 enzymes; test: CYP450 inhibition assays (panel statement); type: in vitro ADME, human; conditions: 5 concentrations from 30 nM to 100 μM
Method: as §1

[10] = target: T4, Serotonin (5-hydroxytryptamine) 5-HT2B (Homo sapiens, UniProt P41595); test: Receptor Profiling 271700; type: binding
T4 construct: Eurofins Discovery Services (contract assay) 271700
T4 sequence (P41595 whole entry): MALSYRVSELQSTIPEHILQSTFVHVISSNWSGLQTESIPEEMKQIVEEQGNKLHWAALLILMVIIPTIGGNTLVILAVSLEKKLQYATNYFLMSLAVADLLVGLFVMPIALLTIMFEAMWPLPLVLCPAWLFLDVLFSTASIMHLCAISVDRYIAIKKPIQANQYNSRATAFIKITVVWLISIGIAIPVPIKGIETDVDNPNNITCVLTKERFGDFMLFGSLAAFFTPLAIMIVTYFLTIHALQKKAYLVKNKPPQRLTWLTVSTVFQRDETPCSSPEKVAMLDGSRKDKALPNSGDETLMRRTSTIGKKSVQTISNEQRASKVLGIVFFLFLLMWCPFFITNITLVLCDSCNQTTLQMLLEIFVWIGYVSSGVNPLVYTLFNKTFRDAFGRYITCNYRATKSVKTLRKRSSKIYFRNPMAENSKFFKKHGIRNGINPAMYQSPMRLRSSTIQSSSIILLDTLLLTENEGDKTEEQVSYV
Method: as §1

[11] = tested on: Calcium Channel L-Type, Dihydropyridine; test: Receptor Profiling 214600; type: binding, rat; conditions: 10 μM
Method: as §1

[12] = tested on: N. gonorrhoeae strain 49226 (ATCC); test: Frequency of resistance; type: cell-based, Neisseria gonorrhoeae; conditions: selection at 4x and 8x MIC
[13] = target: T5, CYP2B6 (Homo sapiens, UniProt P20813); test: Cyp inhibition assay 4877; type: in vitro ADME; conditions: catalog reference 4877, read-out: pIC50 (µM) reported (converted)
T5 construct: Eurofins Discovery Services (contract assay) 4877
T5 sequence (P20813 whole entry): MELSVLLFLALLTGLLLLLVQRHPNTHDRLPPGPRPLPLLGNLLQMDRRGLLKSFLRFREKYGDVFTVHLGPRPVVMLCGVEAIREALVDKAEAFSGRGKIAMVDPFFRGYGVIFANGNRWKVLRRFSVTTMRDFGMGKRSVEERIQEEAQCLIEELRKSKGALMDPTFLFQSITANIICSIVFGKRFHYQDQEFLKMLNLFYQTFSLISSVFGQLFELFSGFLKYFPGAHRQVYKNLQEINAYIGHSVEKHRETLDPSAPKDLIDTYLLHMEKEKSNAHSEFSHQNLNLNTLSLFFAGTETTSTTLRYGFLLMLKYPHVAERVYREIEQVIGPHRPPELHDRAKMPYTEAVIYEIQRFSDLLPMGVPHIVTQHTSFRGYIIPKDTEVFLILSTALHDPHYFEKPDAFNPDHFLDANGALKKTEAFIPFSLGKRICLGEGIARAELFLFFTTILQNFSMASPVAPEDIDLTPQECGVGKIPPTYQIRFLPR
Method: as §1

[14] = target: T6, Protein Tyrosine Kinase, LCK (Homo sapiens, UniProt P06239); test: Receptor Profiling 176020; type: biochemical
T6 construct: purchased Eurofins Discovery Services (Panlabs safety panel)
T6 sequence (P06239 whole entry): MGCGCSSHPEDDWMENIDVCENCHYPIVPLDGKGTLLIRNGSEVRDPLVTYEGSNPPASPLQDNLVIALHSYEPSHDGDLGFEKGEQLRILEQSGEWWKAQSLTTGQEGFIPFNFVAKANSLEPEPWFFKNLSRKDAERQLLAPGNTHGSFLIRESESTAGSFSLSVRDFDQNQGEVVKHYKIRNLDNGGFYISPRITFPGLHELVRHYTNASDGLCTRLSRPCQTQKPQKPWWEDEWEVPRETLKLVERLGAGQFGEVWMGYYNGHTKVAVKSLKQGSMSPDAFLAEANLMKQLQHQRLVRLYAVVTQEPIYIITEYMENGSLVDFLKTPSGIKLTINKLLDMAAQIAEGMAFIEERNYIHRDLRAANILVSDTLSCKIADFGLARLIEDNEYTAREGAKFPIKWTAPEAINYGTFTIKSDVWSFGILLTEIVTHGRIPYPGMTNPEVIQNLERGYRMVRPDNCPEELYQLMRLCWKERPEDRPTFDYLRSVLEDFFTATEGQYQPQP
Method: as §1

[15] = tested on: N. gonorrhoeae ATCC 49226; test: Time-kill assay
[16] = target: T7, Adrenergic α1A (Homo sapiens, UniProt P35348); test: Receptor Profiling 203110; type: binding
T7 construct: purchased Eurofins Discovery Services (Panlabs safety panel)
T7 sequence (P35348 whole entry): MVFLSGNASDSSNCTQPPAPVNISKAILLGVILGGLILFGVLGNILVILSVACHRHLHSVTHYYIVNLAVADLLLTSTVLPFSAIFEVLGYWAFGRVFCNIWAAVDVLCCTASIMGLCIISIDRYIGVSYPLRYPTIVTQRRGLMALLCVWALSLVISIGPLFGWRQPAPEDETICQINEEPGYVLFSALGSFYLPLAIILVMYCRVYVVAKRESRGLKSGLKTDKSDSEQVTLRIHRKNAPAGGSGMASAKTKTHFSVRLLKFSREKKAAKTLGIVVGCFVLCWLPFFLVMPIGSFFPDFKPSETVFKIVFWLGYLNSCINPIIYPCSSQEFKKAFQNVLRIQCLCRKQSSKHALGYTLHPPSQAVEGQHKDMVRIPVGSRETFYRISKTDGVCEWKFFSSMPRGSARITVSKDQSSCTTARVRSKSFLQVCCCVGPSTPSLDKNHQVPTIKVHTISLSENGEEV
Method: as §1

[17] = target: T8, Cav1.2 (Homo sapiens, UniProt Q13936); test: cell-based
T8 construct: Eurofins Discovery Services (contract assay) CYL8051QP2DR
Method: as §1

[18] = Liver microsome stability, rat; type: in vitro ADME
Method: as §2

[19] = target: T9, Transporter, Norepinephrine (NET) (Homo sapiens, UniProt P23975); test: Receptor Profiling 204410; type: binding
T9 construct: purchased Eurofins Discovery Services 204410
T9 sequence (P23975 whole entry): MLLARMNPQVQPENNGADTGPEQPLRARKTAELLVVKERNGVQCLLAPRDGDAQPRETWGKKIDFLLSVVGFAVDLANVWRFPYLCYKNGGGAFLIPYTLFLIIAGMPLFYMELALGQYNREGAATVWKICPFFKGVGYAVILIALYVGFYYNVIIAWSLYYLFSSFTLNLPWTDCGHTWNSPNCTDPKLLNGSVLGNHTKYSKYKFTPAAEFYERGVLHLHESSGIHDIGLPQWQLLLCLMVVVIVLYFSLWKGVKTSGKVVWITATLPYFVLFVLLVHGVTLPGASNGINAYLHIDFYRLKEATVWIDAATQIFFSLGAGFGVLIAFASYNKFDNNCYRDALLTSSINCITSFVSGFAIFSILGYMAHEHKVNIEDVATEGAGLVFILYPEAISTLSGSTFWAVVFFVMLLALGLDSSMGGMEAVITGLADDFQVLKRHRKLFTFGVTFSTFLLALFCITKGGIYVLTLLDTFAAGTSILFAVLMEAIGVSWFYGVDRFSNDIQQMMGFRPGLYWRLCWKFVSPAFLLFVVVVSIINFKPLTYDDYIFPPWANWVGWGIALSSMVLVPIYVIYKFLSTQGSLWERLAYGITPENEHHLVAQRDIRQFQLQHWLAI
Method: as §1

[20] = target: T10, Cannabinoid CB1 (Homo sapiens, UniProt P21554); test: Receptor Profiling 217050; type: binding
T10 construct: purchased Eurofins Discovery Services (Panlabs safety panel)
T10 sequence (P21554 whole entry): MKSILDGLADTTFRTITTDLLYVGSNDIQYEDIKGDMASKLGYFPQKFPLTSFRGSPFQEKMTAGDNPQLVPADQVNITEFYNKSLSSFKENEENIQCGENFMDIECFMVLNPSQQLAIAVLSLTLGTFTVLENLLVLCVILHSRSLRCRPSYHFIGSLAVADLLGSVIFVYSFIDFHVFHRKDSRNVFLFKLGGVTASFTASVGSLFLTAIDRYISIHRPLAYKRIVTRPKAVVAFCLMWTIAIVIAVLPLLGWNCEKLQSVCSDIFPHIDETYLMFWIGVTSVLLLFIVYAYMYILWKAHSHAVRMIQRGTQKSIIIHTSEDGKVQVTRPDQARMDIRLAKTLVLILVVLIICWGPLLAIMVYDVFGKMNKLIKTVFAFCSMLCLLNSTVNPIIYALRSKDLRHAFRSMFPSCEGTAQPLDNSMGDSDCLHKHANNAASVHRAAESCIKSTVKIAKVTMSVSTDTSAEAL
Method: as §1

[21] = target: T11, Dopamine D1 (Homo sapiens, UniProt P21728); test: Receptor Profiling 219500; type: binding
T11 construct: purchased Eurofins Discovery Services (Panlabs safety panel)
T11 sequence (P21728 whole entry): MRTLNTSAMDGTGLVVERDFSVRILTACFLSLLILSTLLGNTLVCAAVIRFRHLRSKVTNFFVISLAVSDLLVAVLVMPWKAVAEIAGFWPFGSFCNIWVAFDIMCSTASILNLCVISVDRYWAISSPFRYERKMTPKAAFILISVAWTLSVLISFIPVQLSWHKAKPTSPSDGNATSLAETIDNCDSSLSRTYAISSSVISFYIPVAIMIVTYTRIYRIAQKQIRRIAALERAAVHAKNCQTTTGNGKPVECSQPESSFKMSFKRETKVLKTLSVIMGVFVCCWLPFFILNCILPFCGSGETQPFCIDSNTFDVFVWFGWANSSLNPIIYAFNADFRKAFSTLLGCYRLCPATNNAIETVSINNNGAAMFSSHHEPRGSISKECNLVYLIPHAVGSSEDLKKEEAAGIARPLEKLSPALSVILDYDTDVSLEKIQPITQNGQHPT
Method: as §1

[22] = Serum protein binding, human; type: in vitro ADME; conditions: read-out: Serum binding (% bound) Human (converted)
Method: Serum protein binding was determined using an equilibrium dialysis method as described. The amount of compound in each chamber (buffer and serum) was measured using methods for reverse-phase liquid chromatography/mass spectroscopy methods that were customized for each compound.

SMILES: O=C(Nc1nnc(-c2ccc(F)cc2)o1)N1CCc2ccccc2C1 [MBX-4132]
- % inhibition [1]: 8%
- inhibition at 10 µM [2]: -108%
- inhibition at 10 µM [3]: 27%
- pIC50 (µM) reported ([4]; CYP3A midazolam, catalog reference 4873): No activity
- IC50 ([4]; human, probe testosterone): > 100 µM
- Serum shift (fold) ([5]; Average Value): 16 fold
- serum Shift ([5]; Ratio of MIC +/- 10% fetal bovine serum added): 16
- Serum shift (fold) ([5]; Replicate 1/2): 16 fold
- MIC ([6]; Streptococcus pneumoniae ATCC 49619, replicates): 34 µg/mL (≈ 100 µM)
- MIC ([6]; Streptococcus pneumoniae, ATCC49619, strain ATCC 49619, read-out: MIC): 34 µg/mL (≈ 100 µM)
- Microsomal stability (t½, min) Dog ([7]; Replicate 1/2, Eurofins): >>60 min
- half-life ([7]; Average Value, Eurofins, read-out: Microsomal stability (t½, min) Dog): > 60 min
- half-life ([7]; Replicate 1/2, Eurofins, read-out: Microsomal stability (t½, min) Dog): > 60 min
- half-life ([7]; Reported value, Eurofins, read-out: Microsomal stability (t½, min) Dog): > 120 min
- half-life ([7]; read-out: Microsomal Stability (t1/2; min) Dog): > 120 min
- inhibition at 10 µM [8]: 7%
- CYP450 inhibitory activity (in words) [9]: no inhibitory activity >50%
- inhibition at 10 µM [10]: 44%
- % inhibition [11]: 11%
- frequency of spontaneous mutants resistant [12]: < 1.2 × 10^−9
- IC50 [13]: > 100 µM
- inhibition at 10 µM [14]: 29%
- AVE CFU/ml ([15]; 1X MIC, 0 h): 9800000 CFU/ml
- AVE CFU/ml ([15]; 1X MIC, 1 h): 7.80E+06 CFU/ml and 7800000 CFU/ml
- CFU/mL, replicates 1-3 ([15]; 1X MIC, 1 h): 7400000 CFU/mL and 6800000 CFU/mL and 9200000 CFU/mL
- AVE CFU/ml ([15]; 1X MIC, 2 h): 3.60E+06 CFU/ml and 3600000 CFU/ml
- CFU/mL, replicates 1-3 ([15]; 1X MIC, 2 h): 3800000 CFU/mL and 3600000 CFU/mL and 3400000 CFU/mL
- AVE CFU/ml ([15]; 1X MIC, 4 h): 5133333 CFU/ml and 5.13E+06 CFU/ml
- CFU/mL, replicates 1-3 ([15]; 1X MIC, 4 h): 5800000 CFU/mL and 5200000 CFU/mL and 4400000 CFU/mL
- AVE CFU/ml ([15]; 1X MIC, 6 h): 6200000 CFU/ml and 6.20E+06 CFU/ml
- CFU/mL, replicates 1-3 ([15]; 1X MIC, 6 h): 6000000 CFU/mL and 5800000 CFU/mL and 6800000 CFU/mL
- AVE CFU/ml ([15]; 1X MIC, 8 h): 1173333 CFU/ml
- AVE CFU/ml ([15]; 1X MIC, 8 h, listed as 4132): 1.17E+06 CFU/ml
- CFU/mL, replicates 1-3 ([15]; 1X MIC, 8 h, listed as 4132): 1120000 CFU/mL and 1160000 CFU/mL and 1240000 CFU/mL
- AVE CFU/ml ([15]; 1X MIC, 24 h): 6866667 CFU/ml and 6.87E+06 CFU/ml
- CFU/mL, replicates 1-3 ([15]; 1X MIC, 24 h): 7400000 CFU/mL and 6400000 CFU/mL and 6800000 CFU/mL
- AVE CFU/ml ([15]; 4X MIC, 0 h): 9800000 CFU/ml
- AVE CFU/ml ([15]; 4X MIC, 1 h): 5.73E+06 CFU/ml and 5733333 CFU/ml
- CFU/mL, replicates 1-3 ([15]; 4X MIC, 1 h): 6400000 CFU/mL and 5600000 CFU/mL and 5200000 CFU/mL
- AVE CFU/ml ([15]; 4X MIC, 2 h): 3.73E+06 CFU/ml and 3733333 CFU/ml
- CFU/mL, replicates 1-3 ([15]; 4X MIC, 2 h): 3600000 CFU/mL and 3400000 CFU/mL and 4200000 CFU/mL
- AVE CFU/ml ([15]; 4X MIC, 4 h): 2733333 CFU/ml and 2.73E+06 CFU/ml
- CFU/mL, replicates 1-3 ([15]; 4X MIC, 4 h): 2400000 CFU/mL (2×) and 3400000 CFU/mL
- AVE CFU/ml ([15]; 4X MIC, 6 h): 2866667 CFU/ml and 2.87E+06 CFU/ml
- CFU/mL, replicates 1-3 ([15]; 4X MIC, 6 h): 3000000 CFU/mL (2×) and 2600000 CFU/mL
- AVE CFU/ml ([15]; 4X MIC, 8 h): 760000 CFU/ml and 7.60E+05 CFU/ml
- CFU/mL, replicates 1-3 ([15]; 4X MIC, 8 h): 780000 CFU/mL and 800000 CFU/mL and 700000 CFU/mL
- AVE CFU/ml ([15]; 4X MIC, 24 h): 0 CFU/ml and 0.00E+00 CFU/ml
- CFU/mL, replicates 1-3 ([15]; 4X MIC, 24 h): 0 CFU/mL
- AVE CFU/ml ([15]; 8X MIC, 0 h): 9800000 CFU/ml
- AVE CFU/ml ([15]; 8X MIC, 1 h): 5.13E+06 CFU/ml and 5133333 CFU/ml
- CFU/mL, replicates 1-3 ([15]; 8X MIC, 1 h): 5200000 CFU/mL and 4600000 CFU/mL and 5600000 CFU/mL
- AVE CFU/ml ([15]; 8X MIC, 2 h): 4.93E+06 CFU/ml and 4933333 CFU/ml
- CFU/mL, replicates 1-3 ([15]; 8X MIC, 2 h): 5400000 CFU/mL and 5200000 CFU/mL and 4200000 CFU/mL
- AVE CFU/ml ([15]; 8X MIC, 4 h): 3000000 CFU/ml and 3.00E+06 CFU/ml
- CFU/mL, replicates 1-3 ([15]; 8X MIC, 4 h): 3000000 CFU/mL and 2800000 CFU/mL and 3200000 CFU/mL
- AVE CFU/ml ([15]; 8X MIC, 6 h): 993333 CFU/ml and 9.93E+05 CFU/ml
- CFU/mL, replicates 1-3 ([15]; 8X MIC, 6 h): 1060000 CFU/mL and 940000 CFU/mL and 980000 CFU/mL
- AVE CFU/ml ([15]; 8X MIC, 8 h): 433333 CFU/ml and 4.33E+05 CFU/ml
- CFU/mL, replicates 1-3 ([15]; 8X MIC, 8 h): 400000 CFU/mL and 480000 CFU/mL and 420000 CFU/mL
- AVE CFU/ml ([15]; 8X MIC, 24 h): 0 CFU/ml and 0.00E+00 CFU/ml
- CFU/mL, replicates 1-3 ([15]; 8X MIC, 24 h): 0 CFU/mL
- MIC ([15]; Neisseria gonorrhoeae, ATCC49226): 0.5 µg/mL (≈ 1.48 µM)
- bactericidal concentration ([15]; time-kill, N. gonorrhoeae): ≥ 4 X MIC
- inhibition at 10 µM [16]: 6%
- IC50 [17]: > 30 µM
- Microsomal stability (t½, min) Rat ([18]; Reported value, Eurofins): >120 min
- half-life ([18]; rat, liver microsomes, read-out: Microsomal Stability (t1/2; min) Rat): > 2 h
- inhibition at 10 µM [19]: 6%
- inhibition at 10 µM [20]: -4%
- inhibition at 10 µM [21]: 26%
- fraction unbound ([22]; Average Value, Eurofins): 0.009
- fraction unbound ([22]; Replicate 1/2, Eurofins): 0.017 and 0.002
- fraction unbound ([22]; Reported value, Eurofins): 0.01
